The text below walks through data of US6727284B2 (priority 1997, dated 2004).

Entries after “also recorded” stand apart in the source; their conditions may differ.

Data set [1] in a line: Side-effects of dichloroacetate in patients. Type of data set: in vivo, human. The source says:
Higher dosages are permitted.

Data set [2] is described as follows: Plasma DCA levels by HPLC in pediatric patients given bolus plus 24 h infusion after cardiopulmonary bypass. As to conditions: bolus 100 mg/kg into proximal aorta, then infusion 12.5 mg/kg/hr for 24 hours, therapeutic range 0.2-1 mM, FIG. 1. Type of data set: in vivo, human. The protocol: This example describes the use of dichloroacetate administered in a bolus followed by infusion for 24 hrs in pediatric patients after cardiopulmonary bypass.
DCA, in a bolus of 100 mg/kg of 10 mg/ml solution ([…] bolus) is injected into the proximal aorta immediately prior to discontinuing the aortic cross-clamp. Immediately thereafter, an infusion of DCA at 12.5 mg/kg/hr is initiated and run for 24 hours or longer. Based on the pharmacokinetics of DCA, this dosage regiment is designed to continuous maintain plasma levels of DCA in the therapeutic range of [0.2-1 mM]—in contrast to transient therapeutic levels.
Blood samples are collected from the indwelling lines of patients in citrate-containing tubes. These samples are centrifuged to separate the plasma and frozen. The frozen samples are later analyzed for DCA concentration by using a high performance liquid chromatography technique (HPLC). See generally Thannikkuto et al., “Dichloracetate (DCA) stimulates pyruvate dehydrogenase complex (PDC) activity in hearts of patients undergoing coronary artery bypass grafting (CABG)” Can. J. Cardiol. 10(suppl. C):130C (1994). Briefly, the analysis was performed on a lonoSpher A (250×4.6 mm L X ID) column accompanied by a guard column AX. Both of the columns were purchased from Chrompack Canada. The mobile phase used was 10^−3 M pyromellitate buffer (pH 3.8-4.0) at a flow rate of […]. […]

For data set [3] the following is noted: cited from earlier work.

As to `O=C(O)C(Cl)Cl` [dichloroacetate], the side-effects result in data set [1] was “does not have significant sideeffects; also recorded: some patients experience mild drowsiness”. For the same compound, the “patient blood (plasma) levels of dichloroacetate” value in data set [2] was “continuously maintained patient blood levels of dichloroacetate in the therapeutic range”; in data set [2] (listed as dichloro acetate) it was “maintained. at high (and therefore therapeutic) levels over a 24 hour period”. Further, the half-life entry in data set [3] (in vivo) is listed as “approximately 40 minutes”. Further, the “time blood levels stay in the therapeutic range” value in data set [3] (single bolus administration) is “less than one hour”.
